Experiments:
[1] = target: T1, human α1D‐adrenoceptor (full length) (Homo sapiens, UniProt P25100); assay: ERK1/2‐phosphorylation (Surefire Alphascreen), CHO‐α1D cells; type: cell-based; conditions: CHO‐α1D cells; for EC50: log values given negative, read-out: ERK1/2‐phosphorylation Log EC50 (converted); for ERK1/2‐phosphorylation % PDBu: maximal response as % of PDBu
T1 construct: human α1D‐adrenoceptor (full length) were used; expressed in transfected cells; host or cells: CHO-K1
T1 sequence (P25100 1-572): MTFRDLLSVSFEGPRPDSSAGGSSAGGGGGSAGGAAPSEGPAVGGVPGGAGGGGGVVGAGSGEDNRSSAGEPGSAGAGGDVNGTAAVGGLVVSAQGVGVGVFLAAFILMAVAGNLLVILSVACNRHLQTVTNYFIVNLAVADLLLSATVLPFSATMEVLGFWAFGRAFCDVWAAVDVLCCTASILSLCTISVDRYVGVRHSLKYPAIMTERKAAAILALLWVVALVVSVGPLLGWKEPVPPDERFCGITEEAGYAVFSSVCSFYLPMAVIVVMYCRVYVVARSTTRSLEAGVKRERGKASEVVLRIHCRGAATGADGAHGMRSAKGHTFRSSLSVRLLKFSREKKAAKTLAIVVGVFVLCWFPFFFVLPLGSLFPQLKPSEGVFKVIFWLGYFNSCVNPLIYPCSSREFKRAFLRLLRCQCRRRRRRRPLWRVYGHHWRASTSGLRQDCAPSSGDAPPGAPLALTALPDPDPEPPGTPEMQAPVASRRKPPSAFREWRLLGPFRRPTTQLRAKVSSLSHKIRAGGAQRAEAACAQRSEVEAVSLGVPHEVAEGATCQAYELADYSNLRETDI

[2] = system: parental CHO cell line without any transfected receptors; assay: Forskolin‐stimulated cAMP accumulation, parent CHO cells without transfected receptors; type: cell-based, Chinese hamster; conditions: CHO cells without transfected receptors; in presence of forskolin
[3] = target: T1, human α1D‐adrenoceptor (full length); assay: ^3H‐prazosin whole‐cell radioligand binding, CHO‐α1D cells; conditions: for Kd: CHO‐α1D cells
[4] = target: T1, human α1D‐adrenoceptor (full length); assay: Intracellular free calcium mobilization, CHO‐α1D cells; type: cell-based; conditions: CHO‐α1D cells; for Log efficacy ratio KD /EC50: intrinsic efficacy ratio, binding KD / calcium EC50; for EC50: log values given negative, read-out: Intracellular calcium release Log EC50 (converted); for Intracellular calcium release % ionomycin: maximal response as % of 10 µM ionomycin
[5] = target: T2, human α1A‐adrenoceptor (Homo sapiens, UniProt P35348); assay: ^3H‐cAMP accumulation, CHO‐α1A cells; type: cell-based; conditions: CHO‐α1A cells
T2 construct: expressed in transfected cells; host or cells: CHO-K1
T2 sequence (P35348 1-466): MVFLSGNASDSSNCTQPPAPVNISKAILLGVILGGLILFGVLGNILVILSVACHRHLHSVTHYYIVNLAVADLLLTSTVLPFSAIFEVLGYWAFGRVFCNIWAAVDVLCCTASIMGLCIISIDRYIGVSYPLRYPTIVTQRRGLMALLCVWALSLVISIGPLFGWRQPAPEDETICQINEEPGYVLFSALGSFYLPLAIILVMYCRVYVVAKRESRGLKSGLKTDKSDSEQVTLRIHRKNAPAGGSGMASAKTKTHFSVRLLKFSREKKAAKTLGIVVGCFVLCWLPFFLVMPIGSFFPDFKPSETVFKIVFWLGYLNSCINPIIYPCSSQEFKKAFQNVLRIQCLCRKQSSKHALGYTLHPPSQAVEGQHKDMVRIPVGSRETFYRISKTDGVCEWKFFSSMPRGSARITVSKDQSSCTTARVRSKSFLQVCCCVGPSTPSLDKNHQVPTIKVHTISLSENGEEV

[6] = target: T2, human α1A‐adrenoceptor; assay: ^3H‐cAMP accumulation in the presence of 10 μM forskolin, CHO‐α1A cells; type: cell-based; conditions: CHO‐α1A cells; for EC50: 10 μM forskolin, read-out: cAMP accumulation (in presence of forskolin) Log EC50 (converted); for cAMP accumulation (in presence of forskolin) Fold increase: fold increase of the forskolin response
[7] = target: T3, human α1B‐adrenoceptor (Homo sapiens, UniProt P35368); assay: ^3H‐cAMP accumulation in the presence of 10 μM forskolin, CHO‐α1B cells; type: cell-based; conditions: CHO‐α1B cells; for cAMP accumulation (in presence of forskolin) Fold increase: fold increase of the forskolin response; for EC50: in presence of forskolin, read-out: cAMP accumulation (in presence of forskolin) Log EC50 (converted)
T3 construct: expressed in transfected cells; host or cells: CHO-K1
T3 sequence (P35368 1-520): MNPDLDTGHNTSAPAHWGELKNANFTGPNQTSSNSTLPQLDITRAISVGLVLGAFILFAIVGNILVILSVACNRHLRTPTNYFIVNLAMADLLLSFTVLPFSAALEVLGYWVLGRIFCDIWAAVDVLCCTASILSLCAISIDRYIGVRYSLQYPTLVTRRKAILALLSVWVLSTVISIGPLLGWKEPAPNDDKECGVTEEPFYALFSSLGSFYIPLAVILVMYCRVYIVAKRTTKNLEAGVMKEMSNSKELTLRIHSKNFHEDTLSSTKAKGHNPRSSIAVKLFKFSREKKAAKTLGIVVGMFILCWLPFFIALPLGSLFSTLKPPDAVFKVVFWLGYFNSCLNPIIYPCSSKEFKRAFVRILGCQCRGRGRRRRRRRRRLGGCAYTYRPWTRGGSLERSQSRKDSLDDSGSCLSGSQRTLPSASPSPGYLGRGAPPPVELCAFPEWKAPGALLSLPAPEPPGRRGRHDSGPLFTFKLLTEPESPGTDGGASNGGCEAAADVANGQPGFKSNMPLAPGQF

[8] = target: T2, human α1A‐adrenoceptor; assay: ERK1/2‐phosphorylation (Surefire Alphascreen), CHO‐α1A cells; type: cell-based; conditions: CHO‐α1A cells, ^a bi‐phasic: initial stimulatory part; for EC50: 2–4 min, ^b also active in parent CHO cells, read-out: ERK1/2‐phosphorylation Log EC50 (converted); for ERK1/2‐phosphorylation % PDBu: % of 10 µM PDBu
[9] = target: T1, human α1D‐adrenoceptor (full length); assay: ^3H‐cAMP accumulation in the presence of 10 μM forskolin, CHO‐α1D cells; type: cell-based; conditions: CHO‐α1D cells; for cAMP (in presence of forskolin) Fold increase: fold increase of the forskolin response
[10] = system: parental CHO cell line without any transfected receptors; assay: ERK1/2‐phosphorylation, parent CHO cells without transfected receptors; type: cell-based, Chinese hamster
[11] = target: T3, human α1B‐adrenoceptor; assay: Intracellular free calcium mobilization, CHO‐α1B cells; type: cell-based; conditions: CHO‐α1B cells; for EC50: given as log EC50 (negative numbers), read-out: Intracellular calcium release Log EC50 (converted); for Log efficacy ratio KD /EC50: intrinsic efficacy ratio, KD from binding / EC50 calcium; for Intracellular calcium release % ionomycin: maximal response as % of 10 µM ionomycin response
[12] = target: T3, human α1B‐adrenoceptor; assay: ^3H‐prazosin whole‐cell radioligand binding, CHO‐α1B cells
[13] = target: T1, human α1D‐adrenoceptor (full length); assay: ^3H‐cAMP accumulation, CHO‐α1D cells; type: cell-based; conditions: cAMP accumulation without forskolin
[14] = 3H‐prazosin binding Log KD, whole‐cell binding (from Table 1), log values given negative
[15] = Log KD α1D, ^3H‐prazosin whole cell binding, given as log KD (negative), mean ± SEM, 'early plateau' = specific binding not fully inhibited
[16] = in presence of forskolin, log values given negative

Structure (SMILES)	EC50 [1] [µM]	ERK1/2‐phosphorylation % PDBu [1] [%]	cAMP accumulation (in presence of forskolin) Log EC50 [2]	Kd [3, 14] [µM]	Kd [3, 15] [µM]	Log efficacy ratio KD /EC50 [4]	EC50 [4] [µM]	Intracellular calcium release % ionomycin [4] [%]	EC50 [6] [µM]	cAMP accumulation (in presence of forskolin) Fold increase [6] [fold]	cAMP accumulation (in presence of forskolin) Fold increase [7] [fold]	EC50 [7] [µM]	EC50 [8] [µM]	ERK1/2‐phosphorylation % PDBu [8] [%]	cAMP (in presence of forskolin) Fold increase [9]	EC50 [11] [µM]	Log efficacy ratio KD /EC50 [11]	Intracellular calcium release % ionomycin [11] [%]	cAMP Log EC50 [13]	also measured
c1ccc2c(CC3=NCCN3)cccc2c1 [Naphazoline]	13.8	33.0 ± 4.7	No response	2.04	2.04	1.24	0.117	11.8 ± 2.2	0.0417	2.18 ± 0.05	1.65 ± 0.07	0.0055	0.00407	90.9 ± 4.4	No response	0.00933	2.29	38.9 ± 2.9	No response	EC50 ([5]; 5 h, read-out: cAMP accumulation Log EC50 (converted)): 0.269 µM; cAMP accumulation % forskolin ([5]; % of 10 µM forskolin response): 57.9 ± 5.7%; cAMP (in presence of forskolin) Log EC50 [9, 16]: No response; Emax at 100 µM ([10]; Cricetulus griseus, CHO, read-out: ERK1/2-phosphorylation % PDBu at 100μM): 9.2 ± 3.3%; Kd ([12]; Log KD α1B, ^3H‐prazosin whole cell binding, CHO‐α1B cells, given as log KD (negative), mean ± SEM): 1.82 µM; Kd ([12]; Log KD, ^3H‐prazosin binding, CHO‐α1B cells, whole‐cell binding (from Table 1), given as log KD (negative numbers)): 1.82 µM; Affinity selectivity ratio α1B vs α1D ([12]; left sub‐column: higher affinity for α1B than α1D): 1.1 fold
CCNCC(O)c1cccc(O)c1 (stereo not shown) [Etilefrine]	1.51	16.8 ± 2.0	No response	35.5	35.5	1.42	1.35	13.7 ± 1.8	1.29	2.17 ± 0.08	2.47 ± 0.09	0.661	0.145	72.8 ± 7.0	1.18 ± 0.04	0.0138	>4.86	61.1 ± 2.1	No response	Affinity selectivity ratio α1A vs α1D ([3]; higher affinity for α1D than α1A): 2.9 fold; Affinity selectivity ratio α1B vs α1D ([3]; higher affinity for α1D than α1B): >28.1 fold; cAMP accumulation % forskolin at 100 µM ([5]; response at 100 μM ligand, no EC50 obtained): 82.7 ± 5.5%; EC50 [9, 16]: 0.759 µM; ERK1/2-phosphorylation % PDBu ([10]; CHO cells without transfected receptors, maximal response as % of PDBu (10μM) response, mean ± s.e.m.): No response; ERK1/2-phosphorylation Log EC50 ([10]; CHO cells without transfected receptors, mean ± s.e.m.): No response; IC50 ([12]; CHO‐α1B cells, printed as IC50> log value): > 1000 µM

Reference: publication PMC8343220, “The selectivity of α‐adrenoceptor agonists for the human α1A, α1B, and α1D‐adrenoceptors” (Pharmacology Research & Perspectives, 2021)
